Experimental data as given in patent publication US11643421B2, “Process for the preparation of tricyclic PI3K inhibitor compounds and methods for using the same for the treatment of cancer” (priority 2015, dated 2023).
Where two headings read alike, the source gives them in different places.

Key:
[1] = molecular target: GRK5 (Homo sapiens, UniProt P34947); test: biochemical; conditions: read-out: % inhib
[2] = molecular target: CLK1 (Homo sapiens, UniProt P49759); test: biochemical; conditions: read-out: % inhib
Sequence of CLK1 (P49759 whole entry): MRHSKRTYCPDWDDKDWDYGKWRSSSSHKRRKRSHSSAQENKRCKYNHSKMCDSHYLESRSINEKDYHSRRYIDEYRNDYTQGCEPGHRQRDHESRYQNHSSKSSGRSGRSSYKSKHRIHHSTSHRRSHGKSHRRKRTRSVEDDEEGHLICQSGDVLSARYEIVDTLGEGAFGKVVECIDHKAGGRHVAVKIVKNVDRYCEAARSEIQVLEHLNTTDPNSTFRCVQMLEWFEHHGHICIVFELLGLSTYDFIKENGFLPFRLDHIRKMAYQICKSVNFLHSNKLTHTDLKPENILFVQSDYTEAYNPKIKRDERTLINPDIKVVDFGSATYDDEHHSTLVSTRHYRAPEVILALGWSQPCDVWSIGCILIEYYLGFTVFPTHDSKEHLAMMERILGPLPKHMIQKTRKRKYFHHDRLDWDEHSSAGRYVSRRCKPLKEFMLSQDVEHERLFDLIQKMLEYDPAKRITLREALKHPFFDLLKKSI

[3] = In vivo pharmacokinetics IV and PO; set-up: species or system male cynomolgus monkeys; conditions: Cyno
Description: (§1) The hepatocyte stability of compound IIIat was evaluated across preclinical species. Certain in vivo pharmacokinetic parameters were also evaluated. […] Male Sprague-Dawley rats, female CD-1 mice, male cynomolgus monkeys and beagle dogs were dosed intravenously with 1 mg/kg of compound IIIat prepared in 60% PEG400/10% Ethanol. Compound IIIat was administered orally (PO) at the indicated dose in 0.5% methylcellulose with 0.2% Tween 80 (MCT).

[4] = Solubility in mono- and ternary-solvent systems; format: physicochemical; conditions: 50° C.
[5] = tested on: pAKT; test: Modulation of pAkt in the brain of healthy mice; format: in vivo, Female CD-1 mice; conditions: single oral dose 25 mg/kg
Description: Inhibition of the PI3K pathway was assessed in the brain of healthy mice through measurement of two markers, pAkt and pS6. […] Brains and plasma were collected at 1 and 6 hours post-dose, from 3 animals at each time point. […] For PD analysis, cell extraction buffer (Invitrogen, Camarillo, Calif.) containing 10 mM Tris pH 7.4, 100 mM NaCl, 1 mM EDTA, 1 mM EGTA, 1 mM NaF, 20 mM Na4P2O7, 2 mM Na3VO4, 1% Triton X-100, 10% glycerol, 0.1% SDS, and 0.5% deoxycholate was supplemented with phosphatase, protease inhibitors (Sigma, St. Louis, Mo.) and 1 mM PMSF and added to frozen brain biopsies. Brains were homogenized with a small pestle (Konte Glass Company, Vineland, N.J.), sonicated briefly on ice, and centrifuged at 20,000 g for 20 minutes at 4° C. Protein concentration was determined using BCA protein assay (Pierce, Rockford, Ill.). Proteins were separated by electrophoresis and transferred to NuPage nitrocellulose membranes (Invitrogen, Camarillo, Calif.). Licor Odyssey Infrared detection system (Licor, Lincoln, Nebr.) was used to assess and quantify protein expression. […] The differences in marker levels between the treated and control mice were evaluated using the Student's t-test (Prism 5, GraphPad).

[6] = molecular target: mouse P-gp (mdr1a) (Mus musculus, UniProt P21447); test: Transport assay in Mdr1a-LLC-PK1 cell monolayers; format: in vitro ADME; conditions: Mdr1a-LLC-PK, 2-hour incubation
Description: MDR1-MDCKI cells were licensed from the NCI (National Cancer Institute, Bethesda, Md.) and Bcrp1-MDCKII, BCRP-MDCKII and Mdr1a-LLC-PK1 cells were obtained from the Netherlands Cancer Institute (Amsterdam. The Netherlands). […] The compound was dissolved in transport buffer consisting of Hank's balanced salt solution (HBSS) with 10 mM HEPES (Invitrogen Corporation, Grand Island, N.Y.). Lucifer Yellow (Sigma-Aldrich, St. Louis, Mo.) was used as the paracellular and monolayer integrity marker. […] The efflux ratio (ER) was calculated (Papp, B-A/Papp, A-B).

[7] = molecular target: Ron (Homo sapiens, UniProt Q04912); test: biochemical; conditions: read-out: % inhib
Sequence of Ron (Q04912 25-1400, species assumed): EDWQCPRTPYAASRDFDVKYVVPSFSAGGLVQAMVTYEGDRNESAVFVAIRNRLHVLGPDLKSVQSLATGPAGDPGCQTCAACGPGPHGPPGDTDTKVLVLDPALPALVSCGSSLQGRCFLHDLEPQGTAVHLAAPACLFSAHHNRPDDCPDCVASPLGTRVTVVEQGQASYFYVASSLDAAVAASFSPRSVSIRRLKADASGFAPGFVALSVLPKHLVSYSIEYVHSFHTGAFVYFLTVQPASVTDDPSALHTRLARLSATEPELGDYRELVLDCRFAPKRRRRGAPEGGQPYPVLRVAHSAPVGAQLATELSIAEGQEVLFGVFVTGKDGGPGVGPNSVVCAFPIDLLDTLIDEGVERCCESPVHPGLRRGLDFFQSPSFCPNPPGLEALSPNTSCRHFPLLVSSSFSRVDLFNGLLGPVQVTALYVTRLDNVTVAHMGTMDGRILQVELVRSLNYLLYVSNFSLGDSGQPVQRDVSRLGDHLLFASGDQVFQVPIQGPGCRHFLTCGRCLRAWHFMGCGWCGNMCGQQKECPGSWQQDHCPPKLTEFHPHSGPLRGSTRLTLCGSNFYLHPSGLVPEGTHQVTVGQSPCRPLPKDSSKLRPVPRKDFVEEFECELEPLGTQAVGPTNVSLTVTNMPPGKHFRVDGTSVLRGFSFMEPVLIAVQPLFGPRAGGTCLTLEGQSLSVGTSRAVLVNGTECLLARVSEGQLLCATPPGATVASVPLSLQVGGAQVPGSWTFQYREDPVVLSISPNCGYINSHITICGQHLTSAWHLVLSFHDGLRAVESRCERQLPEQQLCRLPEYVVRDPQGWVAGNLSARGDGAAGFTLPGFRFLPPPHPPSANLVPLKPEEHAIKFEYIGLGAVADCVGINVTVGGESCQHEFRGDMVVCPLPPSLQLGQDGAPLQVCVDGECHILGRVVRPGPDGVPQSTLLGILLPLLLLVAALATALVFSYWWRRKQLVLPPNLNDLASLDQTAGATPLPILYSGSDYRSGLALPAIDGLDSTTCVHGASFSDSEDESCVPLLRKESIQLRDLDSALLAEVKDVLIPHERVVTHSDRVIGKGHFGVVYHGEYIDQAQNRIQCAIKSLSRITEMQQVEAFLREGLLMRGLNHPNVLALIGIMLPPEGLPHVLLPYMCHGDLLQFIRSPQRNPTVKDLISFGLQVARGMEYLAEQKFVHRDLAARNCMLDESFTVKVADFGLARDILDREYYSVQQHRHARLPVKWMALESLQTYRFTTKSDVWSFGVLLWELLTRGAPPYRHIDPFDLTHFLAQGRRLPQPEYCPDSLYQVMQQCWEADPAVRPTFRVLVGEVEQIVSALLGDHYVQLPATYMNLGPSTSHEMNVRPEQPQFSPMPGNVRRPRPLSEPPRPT

[8] = In vivo pharmacokinetics IV and PO; set-up: species or system beagle dogs; conditions: Dog
Description: as §1

[9] = molecular target: MYLK2 (skMLCK) (Homo sapiens, UniProt Q9H1R3); test: biochemical; conditions: read-out: % inhib
Sequence of MYLK2 (skMLCK) (Q9H1R3 whole entry): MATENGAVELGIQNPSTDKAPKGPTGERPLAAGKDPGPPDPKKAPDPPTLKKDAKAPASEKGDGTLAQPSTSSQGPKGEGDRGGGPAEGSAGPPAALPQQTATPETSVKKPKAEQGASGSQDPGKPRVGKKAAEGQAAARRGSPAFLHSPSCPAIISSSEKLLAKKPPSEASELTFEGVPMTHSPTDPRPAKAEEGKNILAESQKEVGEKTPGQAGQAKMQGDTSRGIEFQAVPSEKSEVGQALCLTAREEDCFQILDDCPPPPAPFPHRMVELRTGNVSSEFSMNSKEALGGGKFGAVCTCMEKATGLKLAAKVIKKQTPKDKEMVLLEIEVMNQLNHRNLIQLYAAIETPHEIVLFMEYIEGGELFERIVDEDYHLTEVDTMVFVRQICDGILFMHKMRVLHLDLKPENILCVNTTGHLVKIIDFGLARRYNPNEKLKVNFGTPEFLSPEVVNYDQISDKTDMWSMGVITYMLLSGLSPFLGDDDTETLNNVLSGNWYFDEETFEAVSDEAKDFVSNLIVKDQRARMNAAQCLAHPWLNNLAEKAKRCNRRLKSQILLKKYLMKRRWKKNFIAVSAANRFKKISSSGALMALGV

[10] = molecular target: CDK5/p25 (Homo sapiens, UniProt Q00535); test: biochemical; conditions: read-out: % inhib
Sequence of CDK5/p25 (Q00535 whole entry, species assumed): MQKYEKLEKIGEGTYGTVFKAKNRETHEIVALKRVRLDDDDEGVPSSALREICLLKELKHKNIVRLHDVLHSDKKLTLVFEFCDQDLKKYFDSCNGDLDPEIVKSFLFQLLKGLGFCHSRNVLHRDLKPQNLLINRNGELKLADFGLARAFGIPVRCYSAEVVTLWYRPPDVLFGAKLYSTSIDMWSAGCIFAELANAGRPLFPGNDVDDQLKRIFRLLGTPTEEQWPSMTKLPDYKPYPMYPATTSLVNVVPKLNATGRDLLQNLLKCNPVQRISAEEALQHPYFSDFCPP
Sequence of CDK5/p25 (Q15078 99-307 partner limits assumed, species assumed): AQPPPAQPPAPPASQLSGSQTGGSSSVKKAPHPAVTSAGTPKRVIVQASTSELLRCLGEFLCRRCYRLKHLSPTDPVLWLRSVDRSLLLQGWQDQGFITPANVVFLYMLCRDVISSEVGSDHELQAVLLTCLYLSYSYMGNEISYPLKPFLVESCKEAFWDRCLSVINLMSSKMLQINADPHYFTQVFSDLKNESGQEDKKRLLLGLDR

[11] = tested on: U87 intracranial tumors; test: Efficacy in U87 intracranial model; format: in vivo, mice; conditions: 15 mg/kg PO daily for 2 weeks, micro-CT
Text: These U87 and GS2 models are PTEN-deficient, with the GS2 cell line presenting a copy number loss at the PTEN locus (Gunther H S, et al.) with no detectable PTEN protein by western blot (Carlson […], Schroeder […]., “Establishment, maintenance and in vitro and in vivo applications of primary human glioblastoma multiforme (GBM) xenograft models for translational biology studies and drug discovery”, Curr Protoc Pharmacol. 2011; Chapter 14: Unit 14 16). The identity of the two cell lines was confirmed by STR profiling (DNA Diagnostics Center) using cells within 5 passages of those utilized for in vivo studies. […] The differences between treatment groups were evaluated using Student's t test in Prism (Prism 5, GraphPad). […] Body temperature was continuously monitored using a rectal probe and was maintained at 37° C. by a heated-air flow system regulated by in-house LabVIEW controller software. […] 12-20 axial 0.5-0.8 mm-thick slices were acquired with a 20×20 mm field of view (FOV), and 128×128 matrix, zero-filled to 256×256 mages. […] Brain sample preparation, micro-CT scanning, and image analysis for ex-vivo micro-CT imaging were performed as described previously (de […], Nishimura M C, Phillips H, Carano […] micro-CT imaging of the postmortem brain”, J. Neurosci. Methods. 2008; 171 (2): 207-213).

[12] = tested on: TAO1; test: Kinase panel; format: biochemical; conditions: TAO1, 1 μM
[13] = molecular target: NEK2 (Homo sapiens, UniProt P51955); test: biochemical; conditions: read-out: % inhib
Sequence of NEK2 (P51955 whole entry): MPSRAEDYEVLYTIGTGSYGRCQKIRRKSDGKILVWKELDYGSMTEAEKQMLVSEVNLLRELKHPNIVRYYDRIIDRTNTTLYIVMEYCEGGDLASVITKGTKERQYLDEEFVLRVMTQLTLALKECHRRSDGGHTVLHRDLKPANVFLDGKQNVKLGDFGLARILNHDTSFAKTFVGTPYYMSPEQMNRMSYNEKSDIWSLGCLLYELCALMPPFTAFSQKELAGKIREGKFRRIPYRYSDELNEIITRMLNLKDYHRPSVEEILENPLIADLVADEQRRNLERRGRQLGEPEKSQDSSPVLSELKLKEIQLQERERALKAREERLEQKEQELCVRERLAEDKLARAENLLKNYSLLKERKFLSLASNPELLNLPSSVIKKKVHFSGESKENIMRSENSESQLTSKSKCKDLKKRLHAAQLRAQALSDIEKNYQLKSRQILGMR

[14] = Hepatocyte stability, predicted hepatic clearance; format: in vitro ADME, cynomolgus monkeys; conditions: Cyno hepatocytes, in vitro t1/2 method
Description: as §1

Sequence of GRK5 (P34947 whole entry): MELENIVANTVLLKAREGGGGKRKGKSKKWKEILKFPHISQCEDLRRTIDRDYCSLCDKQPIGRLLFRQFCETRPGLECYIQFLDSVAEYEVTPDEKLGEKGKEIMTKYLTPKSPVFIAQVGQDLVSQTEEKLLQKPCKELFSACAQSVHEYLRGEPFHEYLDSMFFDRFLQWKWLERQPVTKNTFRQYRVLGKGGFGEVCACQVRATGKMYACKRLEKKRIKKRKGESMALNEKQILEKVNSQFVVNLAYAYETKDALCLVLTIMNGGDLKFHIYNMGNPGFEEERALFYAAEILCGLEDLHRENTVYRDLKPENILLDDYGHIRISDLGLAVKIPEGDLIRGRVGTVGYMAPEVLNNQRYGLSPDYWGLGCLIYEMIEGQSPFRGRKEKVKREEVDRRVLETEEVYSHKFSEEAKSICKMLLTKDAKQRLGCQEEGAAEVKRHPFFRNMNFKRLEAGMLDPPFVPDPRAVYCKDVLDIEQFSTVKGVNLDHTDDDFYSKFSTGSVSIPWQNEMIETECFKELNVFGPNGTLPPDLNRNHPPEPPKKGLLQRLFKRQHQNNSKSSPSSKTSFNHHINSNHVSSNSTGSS

With CC1(C)OCCn2c1nc1c(N3CCOCC3)nc(-c3cnc(N)nc3)nc12 [GDC-0084, 5-(6,6-dimethyl-4-morpholino-8,9-dihydro-6H-[1,4]oxazino[3,4-e]purin-2-yl)pyrimidin-2-amine] the inhibition at 1 µM [1] was -10%, the inhibition at 1 µM [2] was 4% and the AUC ([3]; PO 2 mg/kg in MCT) was 0.11 μm·h. It also gave a Cmax ([3]; PO 2 mg/kg in MCT) of 0.03 μm, a clearance ([3]; male, cynomolgus monkey, plasma, IV 1 mg/kg, read-out: In vivo Cl) of 46 mL/min/kg and a Vd ([3]; male, cynomolgus monkey, plasma, IV 1 mg/kg, read-out: Vss) of 2.9 L/kg. For the same compound, the bioavailability ([3]; male, cynomolgus monkey, plasma, PO 2 mg/kg in MCT) was 6%, the Solubility ([4]; DMF) was 0.9 wt. % and the Solubility ([4]; DMF/HOAc/H2O 67:24:9 by volume) was 0.3 wt. %. The Solubility ([4]; EtOH) was 0.1 wt. %, the Solubility ([4]; EtOH/HOAc/H2O 67:24:9 by volume) was 1 wt. % and the Solubility ([4]; HOAc) was 2.8 wt. %. It also gave a Solubility ([4]; HOAc/HOAc/H2O 67:24:9 by volume) of 2.1 wt. %, a Solubility ([4]; MeOH) of 0.2 wt. % and a Solubility ([4]; MeOH/HOAc/H2O 67:24:9 by volume) of 0.4 wt. %. It also gave a Solubility ([4]; MeTHF) of 0.3 wt. %, a Solubility ([4]; MeTHF/HOAc/H2O 67:24:9 by volume) of 2.7 wt. % and a Solubility ([4]; PhMe) of 0.1 wt. %. It also gave a Solubility ([4]; THF) of 0.7 wt. %, a Solubility ([4]; THF/HOAc/H2O 67:24:9 by volume) of 3.7 wt. % and a Solubility ([4]; Toluene/HOAc/H2O 67:24:9 by volume) of 3.8 wt. %. It also gave a Solubility ([4]; i-BuOH) of 0.1 wt. %, a Solubility ([4]; i-BuOHHOAcH2O 67:24:9 by volume) of 2.1 wt. % and a Solubility ([4]; n-BuOH) of 0.1 wt. %. For the same compound, the Solubility ([4]; n-BuOH/HOAc/H2O 67:24:9 by volume) was 2.4 wt. %, the Solubility ([4]; n-PrOH) was 0.1 wt. % and the Solubility ([4]; n-PrOH/HOAc/H2O 67:24:9 by volume) was 1.8 wt. %. The “Suppression of pAkt in brain” value ([5]; 1 hour post dose) was 90%, the “Suppression of pAkt in brain” value ([5]; 6 hours after dosing) was “greater than 70%” and the Papp B→A at 2 h, 5 μM [6] was 19.4 ± 1.3 ×10⁻⁶ cm/s. The inhibition at 1 µM [7] was 8%, the AUC ([8]; PO 2 mg/kg in MCT) was 1.6 μm·h and the Cmax ([8]; PO 2 mg/kg in MCT) was 0.2 μm. It also gave a clearance ([8]; beagle, plasma, IV 1 mg/kg, read-out: In vivo Cl) of 26 mL/min/kg, a Vd ([8]; beagle, plasma, IV 1 mg/kg, read-out: Vss) of 3 L/kg and a bioavailability ([8]; beagle, plasma, PO 2 mg/kg in MCT) of 40%. The inhibition at 1 µM [9] was 3%, the inhibition at 1 µM [10] was 0.3% and the “U87 tumor volume reduction versus vehicle control” value [11] was “approximately 70%”. For the same compound, the “% inhib” value [12] was −1.3%, the inhibition at 1 µM [13] was 20% and the Clhep [14] was 26 mL/min/kg.
